Reference: ChEMBL document CHEMBL1201862, “PubChem BioAssay data set” (2004)
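Each compound was tested at five concentrations against cells in 96-well plates for 48 hours. GI50: concentration for 50% inhibition of growth.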 Active and inactive are the calls of the source. No stated cut-off is given here; in the data, active = GI50 up to about 1.1 µM and inactive = higher.

Tests used:
Test in all cases: NCI-60 cell line screen, 48 h
BT-549 = test system: BT-549
EKVX = test system: EKVX
HCC 2998 = test system: HCC 2998
HCT-116 = test system: HCT-116
HL-60 = test system: HL-60
HT-29 = test system: HT-29
KM12 = test system: KM12
M14 = test system: M14
MDA-MB-435 = test system: MDA-MB-435
NCI-H460 = test system: NCI-H460
OVCAR-5 = test system: OVCAR-5
OVCAR-8 = test system: OVCAR-8
RPMI-8226 = test system: RPMI-8226
RXF 393 = test system: RXF 393
SF-539 = test system: SF-539
SK-OV-3 = test system: SK-OV-3
SNB-19 = test system: SNB-19
SW-620 = test system: SW-620
T47D = test system: T47D
UACC-257 = test system: UACC-257

In the case of `C[C@@H](CN1CC(=O)NC(=O)C1)N1CC(=O)NC(=O)C1` [DEXRAZOXANE], the GI50 (BT-549) is reported as 230 µM (inactive), the GI50 (EKVX) is reported as 173 µM (inactive) and the GI50 (HCC 2998) is reported as 473 µM (inactive). The GI50 (HCT-116) was 118 µM (inactive), the GI50 (HL-60) was 51100 nM (inactive) and the GI50 (HT-29) was 110 µM (inactive). For the same molecule, the GI50 (KM12) was 522 µM (inactive), the GI50 (M14) was 360 µM (inactive) and the GI50 (MDA-MB-435) was 395 µM (inactive). The GI50 (NCI-H460) was 6.67 µM (inactive), the GI50 (OVCAR-5) was 372 µM (inactive) and the GI50 (OVCAR-8) was 282 µM (inactive). The GI50 (RPMI-8226) was 327 µM (inactive), the GI50 (RXF 393) was 272 µM (inactive) and the GI50 (SF-539) was 332 µM (inactive). The GI50 (SK-OV-3) was 227 µM (inactive), the GI50 (SNB-19) was 279 µM (inactive) and the GI50 (SW-620) was 57.5 µM (inactive). The GI50 (T47D) was 109 µM (inactive) and the GI50 (UACC-257) was 492 µM (inactive).
In the case of `CC(C)/C(Cl)=N/OC(=O)Nc1ccc(Cl)c(Cl)c1`, the GI50 (BT-549) is reported as 4.84 µM (inactive), the GI50 (EKVX) is reported as 2 µM (inactive) and the GI50 (HCC 2998) is reported as 14.9 µM (inactive). The GI50 (HCT-116) was 2.18 µM (inactive), the GI50 (HL-60) was 1760 nM (inactive) and the GI50 (HT-29) was 5.48 µM (inactive). The GI50 (KM12) was 17.5 µM (inactive), the GI50 (M14) was 2.45 µM (inactive) and the GI50 (MDA-MB-435) was 5.68 µM (inactive). The GI50 (NCI-H460) was 17 µM (inactive), the GI50 (OVCAR-5) was 16 µM (inactive) and the GI50 (OVCAR-8) was 18.1 µM (inactive). For the same molecule, the GI50 (RPMI-8226) was 2.36 µM (inactive), the GI50 (RXF 393) was 13.4 µM (inactive) and the GI50 (SF-539) was 13.6 µM (inactive). The GI50 (SK-OV-3) was 17.1 µM (inactive), the GI50 (SNB-19) was 21.5 µM (inactive) and the GI50 (SW-620) was 2.13 µM (inactive). For the same molecule, the GI50 (T47D) was 4.29 µM (inactive) and the GI50 (UACC-257) was 14.6 µM (inactive).
With `CN(C)CCCN1c2ccccc2Sc2ccc3ccccc3c21` the GI50 (BT-549) was 13.1 µM (inactive), the GI50 (EKVX) was 10.7 µM (inactive) and the GI50 (HCC 2998) was 1.53 µM (inactive). The GI50 (HCT-116) was 10.2 µM (inactive), the GI50 (HL-60) was < 10 nM (active) and the GI50 (HT-29) was 3.52 µM (inactive). For the same molecule, the GI50 (KM12) was 6.58 µM (inactive), the GI50 (M14) was 1.79 µM (inactive) and the GI50 (MDA-MB-435) was 3.1 µM (inactive). The GI50 (NCI-H460) was 2.79 µM (inactive), the GI50 (OVCAR-5) was 11.3 µM (inactive) and the GI50 (OVCAR-8) was 12.7 µM (inactive). The GI50 (RPMI-8226) was 2.48 µM (inactive), the GI50 (RXF 393) was 1.65 µM (inactive) and the GI50 (SF-539) was 16.1 µM (inactive). For the same molecule, the GI50 (SK-OV-3) was 14.2 µM (inactive), the GI50 (SNB-19) was 14.8 µM (inactive) and the GI50 (SW-620) was 8.3 µM (inactive). The GI50 (T47D) was 2.05 µM (inactive) and the GI50 (UACC-257) was 1.84 µM (inactive).
With `COC(=O)c1cc2cc3c(c(O)c2c(=O)o1)O[C@@]1(Oc2c(O)c4c(c(O)c2[C@H]1OC1CC(OC)C(O)C(C)O1)C(=O)C=C(OC)C4=O)[C@H](O)C3` (stereo partly drawn) the GI50 (BT-549) was 1.3 µM (inactive), the GI50 (EKVX) was 1.74 µM (inactive) and the GI50 (HCC 2998) was 1.2 µM (inactive). For the same molecule, the GI50 (HCT-116) was 0.735 µM (active), the GI50 (HL-60) was 719 nM (active) and the GI50 (HT-29) was 1.14 µM (inactive). For the same molecule, the GI50 (KM12) was 0.904 µM (active), the GI50 (M14) was 1.17 µM (inactive) and the GI50 (MDA-MB-435) was 1.09 µM (active). For the same molecule, the GI50 (NCI-H460) was 0.685 µM (active), the GI50 (OVCAR-5) was 1.84 µM (inactive) and the GI50 (OVCAR-8) was 1.06 µM (active). For the same molecule, the GI50 (RPMI-8226) was 0.547 µM (active), the GI50 (RXF 393) was 0.726 µM (active) and the GI50 (SF-539) was 0.908 µM (active). For the same molecule, the GI50 (SK-OV-3) was 1.85 µM (inactive), the GI50 (SNB-19) was 1 µM (active) and the GI50 (SW-620) was 1.07 µM (active). The GI50 (T47D) was 1.5 µM (inactive) and the GI50 (UACC-257) was 2 µM (inactive).
With `Nc1nc(SCc2ccccc2)c2ncn(Cc3ccccc3)c2n1` the GI50 (BT-549) was > 100 µM (inactive), the GI50 (EKVX) was > 100 µM (inactive) and the GI50 (HCC 2998) was > 100 µM (inactive). For the same molecule, the GI50 (HCT-116) was > 100 µM (inactive), the GI50 (HL-60) was 4560 nM (inactive) and the GI50 (HT-29) was > 81.8 µM (inactive). For the same molecule, the GI50 (KM12) was > 86.9 µM (inactive), the GI50 (M14) was > 100 µM (inactive) and the GI50 (MDA-MB-435) was > 71.8 µM (inactive). The GI50 (NCI-H460) was > 79.4 µM (inactive), the GI50 (OVCAR-5) was > 100 µM (inactive) and the GI50 (OVCAR-8) was > 100 µM (inactive). For the same molecule, the GI50 (RPMI-8226) was > 75.9 µM (inactive), the GI50 (RXF 393) was 62.2 µM (inactive) and the GI50 (SF-539) was > 100 µM (inactive). For the same molecule, the GI50 (SK-OV-3) was > 100 µM (inactive), the GI50 (SNB-19) was > 100 µM (inactive) and the GI50 (SW-620) was > 100 µM (inactive). For the same molecule, the GI50 (T47D) was > 47.6 µM (inactive) and the GI50 (UACC-257) was > 71 µM (inactive).
`CC(C)(CO)NC1=C(Cl)C(=O)c2c(O)ccc(O)c2C1=O` was tested, and the GI50 (BT-549) was 0.942 µM (active), the GI50 (EKVX) was 1.87 µM (inactive) and the GI50 (HCC 2998) was 1.43 µM (inactive). For the same molecule, the GI50 (HCT-116) was 1.57 µM (inactive), the GI50 (HL-60) was 233 nM (active) and the GI50 (HT-29) was 1.31 µM (inactive). For the same molecule, the GI50 (KM12) was 1.43 µM (inactive), the GI50 (M14) was 0.865 µM (active) and the GI50 (MDA-MB-435) was 1.15 µM (inactive). The GI50 (NCI-H460) was 2.42 µM (inactive), the GI50 (OVCAR-5) was 1.65 µM (inactive) and the GI50 (OVCAR-8) was 1.29 µM (inactive). For the same molecule, the GI50 (RPMI-8226) was 2.05 µM (inactive), the GI50 (RXF 393) was 1.85 µM (inactive) and the GI50 (SF-539) was 1.39 µM (inactive). For the same molecule, the GI50 (SK-OV-3) was 1.57 µM (inactive), the GI50 (SNB-19) was 1.77 µM (inactive) and the GI50 (SW-620) was 0.327 µM (active). The GI50 (T47D) was 1.93 µM (inactive) and the GI50 (UACC-257) was 1.71 µM (inactive).
For `CC1CC(C)CC(C)C(O)/C(C#N)=C/C=C/CC(C2CCCC2C(=O)O)OC(=O)CC(O)C(C)C1` (stereo not drawn), the GI50 (BT-549) was 0.0143 µM (active), the GI50 (EKVX) was 0.064 µM (active) and the GI50 (HCC 2998) was 0.0151 µM (active). For the same molecule, the GI50 (HCT-116) was 0.0223 µM (active), the GI50 (HL-60) was 13.7 nM (active) and the GI50 (M14) was < 0.0121 µM (active). For the same molecule, the GI50 (MDA-MB-435) was < 0.01 µM (active), the GI50 (NCI-H460) was 0.0284 µM (active) and the GI50 (OVCAR-5) was < 0.01 µM (active). For the same molecule, the GI50 (OVCAR-8) was 0.0192 µM (active), the GI50 (RPMI-8226) was < 0.0305 µM (active) and the GI50 (RXF 393) was < 0.01 µM (active). For the same molecule, the GI50 (SF-539) was < 0.01 µM (active), the GI50 (SK-OV-3) was 0.0161 µM (active) and the GI50 (SNB-19) was 0.0135 µM (active). For the same molecule, the GI50 (SW-620) was 0.0335 µM (active), the GI50 (T47D) was < 0.01 µM (active) and the GI50 (UACC-257) was 0.0154 µM (active).
